What was measured:
Format in all cases: in vivo
[1] = test system: rats subject to ischaemia/reperfusion injury; experiment: Rotarod test of motor function after reversible stroke and reperfusion; conditions: 2 h occlusion, over ensuing 7 days, FIG. 4
Experimental: Anaesthetised rats were subject to 2 hours reversible stroke using the intraluminal thread model of middle cerebral artery occlusion. At 2 hours, reperfusion was initiated by withdrawing the thread and following a further 2 hours, N-acetyl-L-tryptophan (10^-5 mol/kg) or […],060 (1 mg/kg) was administered by intravenous injection.

blood brain barrier [2] = experiment: Evan's blue leakage into brain tissue following injury; conditions: dose-dependent, FIG. 1
Excerpt: We chose to use the compound N-acetyl-L-tryptophan (NAT).

blood brain barrier [3] = experiment: Blood brain barrier permeability induced by injection of tPA in naïve (uninjured) animal; conditions: FIG. 2
[4] = test system: rats subject to ischaemia/reperfusion injury; experiment: Oedema after reversible stroke (intraluminal thread model of middle cerebral artery occlusion) and reperfusion; conditions: 2 h occlusion, 10^−5 mol/kg intravenous 2 h after reperfusion, FIG. 3
Experimental: To this end, anaesthetised rats were subject to 2 hours reversible stroke using the intraluminal thread model of middle cerebral artery occlusion. At 2 hours, reperfusion was initiated by withdrawing the thread and following a further 2 hours, N-acetyl-L-tryptophan (10^−5 mol/kg) was administered by intravenous injection. There was a significant increase in oedema at 24 h following ischaemia/reperfusion injury.

[5] = test system: IL-1β, IL-6 and TNFα mRNA; experiment: RT-PCR of inflammatory cytokine mRNA in brain tissue after hypoxia and hypotension; conditions: rats, 10^−5 mol/kg intravenous after hypoxia and hypotension, 6 hours after injury, normalised to rpL32
Experimental: In order to induce the inflammatory response associated with reperfusion, anaesthetised rats were subject to 15 minutes of hypoxia (PAO2 30-40 mmHg) and hypotension (MABP 40 mmHg), before blood oxygen level and blood pressure were restored to normal levels. In order to examine the effects of a substance P antagonist on the inflammatory response, N-acetyl-L-tryptophan was administered intravenously at a dose of 10^−5 mol/kg after hypoxia and hypotension. The expression of mRNA for the inflammatory cytokines IL-1β, IL-6 and TNFα in brain tissue was determined by reverse transcription followed by a polymerase chain reaction (RT-PCR). mRNA levels were normalised with respect to expression of rpL32. Brain tissue samples were collected at 6 hours after injury. Levels of expression of mRNA for the inflammatory cytokines were compared between non-ischaemic animals (control), ischaemic animals administered drug vehicle alone (ischaemia), and ischaemic animals administered a substance P receptor antagonist (NK1). mRNA expression was determined for IL-1β (FIG. 5a), IL-6 (FIG. 5b) and TNFα (FIG. 5c).

IL-6 = experiment: Serum IL-6 by ELISA after hypoxia and hypotension; conditions: rats; 10^−5 mol/kg intravenous after hypoxia and hypotension; blood at 6 hours after the insult; FIG. 6
Experimental: In order to induce the inflammatory response associated with reperfusion, anaesthetised rats were subject to 15 minutes of hypoxia (PAO2 30-40 mmHg) and hypotension (MABP 40 mmHg), before blood oxygen level and blood pressure were restored to normal levels. In addition, serum interleukin 6 levels were also determined. Blood samples were collected at 6 hours after the insult. Changes in serum IL-6 levels were quantified using an enzyme-linked immunosorbent assay (ELISA). Serum levels of IL-6 were compared between animals that were not subject to ischaemia (control), animals subject to ischaemia followed by administration of drug vehicle alone (ischaemia), and animals subject to ischaemia followed by administration of a substance P receptor antagonist (NK1) (FIG. 6).

Compound: FC(F)(F)c1cc(CO[C@H]2CCCN[C@H]2c2ccccc2)cc(C(F)(F)F)c1 [L733,060]
- functional outcome, rotarod test of motor function ([1]; 1 mg/kg intravenous 2 h after reperfusion): improved functional outcome

Compound: CC(=O)N[C@@H](Cc1c[nH]c2ccccc12)C(=O)O [N-acetyl-L-tryptophan]
- leakage of Evan's blue dye into the brain tissue (blood brain barrier closure) (blood brain barrier [2]): reduced leakage of Evan's blue dye into the brain tissue
- permeability of the blood brain barrier induced by tPA (blood brain barrier [3]; NAT 10^−5 mol/kg, tPA (Actilyse) injected to naïve (uninjured) animal): prevented the increased permeability of the blood brain barrier
- oedema at 24 h following ischaemia/reperfusion injury [4]: significantly attenuated
- functional outcome, rotarod test of motor function ([1]; 10^−5 mol/kg intravenous 2 h after reperfusion): profound improvement in functional outcome
- expression of IL-1β mRNA in brain tissue with respect to non-ischaemic animals ([5]; FIG. 5a): no significant differences
- expression of IL-6 mRNA in brain tissue with respect to non-ischaemic animals ([5]; FIG. 5b): no significant differences
- expression of TNFα mRNA in brain tissue with respect to non-ischaemic animals ([5]; FIG. 5c): no significant differences
- increase in serum IL-6 levels (IL-6): this response was not observed

Compound: tPA: tissue plasminogen activator, a thrombolytic agent
- permeability of the blood brain barrier after tPA alone (blood brain barrier [3]; tPA (Actilyse) alone to naïve (uninjured) animal): increased permeability of the blood brain barrier
